Measurements: the supplement of paper PMC11208160

Test: recombinant barcode read abundance after kanamycin selection (control-corrected) (log10(CPM+1)); higher = more efficient recombination; sequences stand for … in AGTGCAGAGAAAATCGGCCAGTTTTCTCTGCCTGCAGTCCGCATGCCGT…AGATTTATGCAGCGGACTGCCTTTCTCCCAAAGTGATAAACCGGACAGTATCATGGACCGGTTTTCCCGGTAATCCGTATTTGCAAGGTTGGTTTCACT; site = the 11-nt target
Outline: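 Reported as log10(CPM+1), each value stands for recombination efficiency. That efficiency is the averaged, control-corrected counts per million of barcodes found at recombinant junctions. Cells from a pooled E. coli library pairing targets with IS621 bridge RNA target-binding loops were plated twice on chloramphenicol/ampicillin LB agar (control) and twice on chloramphenicol/ampicillin/kanamycin with 0.1 mM IPTG.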
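Also: IS621 recombinase and bridge RNA in Escherichia coli cells.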

Sequence	recombinant barcode read abundance (log10)
CCATACGCTTGGGTTCTAACCTGTTGCCT (site CCATACGCTAG)	0.178
CCATACGCTTGGGTTCTAACCTGTTGCCT (site CGAGACGCTAG)	0.189
CCATCAACTTGGGTTCTAACCTGTTGCCT (site CCATCAACTAG)	0.0699
CCATCAACTTGGGTTCTAACCTGTTGCCT (site CCATGAACTTG)	0.0637
CCATCTCCTTGGGTTCTAACCTGTTGCCT (site ACATCTCCTAG)	0.0982
CCATCTCCTTGGGTTCTAACCTGTTGCCT (site CCATCTCCTAG)	0.492
CCATCTCCTTGGGTTCTAACCTGTTGCCT (site GCATCTCCTAG)	0.127
CCATCTCCTTGGGTTCTAACCTGTTGCCT (site TCATCTCCTAG)	0.0439
CCGAAGCCTTGGGTTCTAACCTGTTGCCT (site CCGAAGCCTAG)	1.01
CCGAAGCCTTGGGTTCTAACCTGTTGCCT (site CCGCAGCCTAG)	0.256
CCGAAGCCTTGGGTTCTAACCTGTTGCCT (site CCGGAGCCTAG)	0.144
CCGAAGCCTTGGGTTCTAACCTGTTGCCT (site CCGTAGCCTAG)	0.143
CCGAATGCTTGGGTTCTAACCTGTTGCCT (site CCGAATGCTAG)	0.188
CCGAATGCTTGGGTTCTAACCTGTTGCCT (site CCGCATGCTAG)	0.0438
CCGAATGCTTGGGTTCTAACCTGTTGCCT (site CCGGATGCTAG)	0.144
CCGAATGCTTGGGTTCTAACCTGTTGCCT (site CCGTATGCTAG)	0.155
CCGATCACTTGGGTTCTAACCTGTTGCCT (site CCGATCACTAG)	1.14
CCGATCACTTGGGTTCTAACCTGTTGCCT (site CGTATCACTAG)	0.034
CCGCAGACTTGGGTTCTAACCTGTTGCTT (site CCGCAGACTAA)	1.33
CCGCAGACTTGGGTTCTAACCTGTTGCTT (site CCGCGGACTAA)	0.013
CCGCCCTCTTGGGTTCTAACCTGTTGCTT (site CAGCCCTCTTA)	0.586
CCGCCCTCTTGGGTTCTAACCTGTTGCTT (site CCGCCCTCTAA)	0.291
CCGCGCACTTGGGTTCTAACCTGTTGCCT (site CCGCGCACTAG)	0.397
CCGCGCACTTGGGTTCTAACCTGTTGCCT (site CCGCGCTCTAG)	0.206
CCGCGTGCTTGGGTTCTAACCTGTTGCCT (site CAGCGTGCTAG)	0.161
CCGCGTGCTTGGGTTCTAACCTGTTGCCT (site CCGCGTGCTAG)	0.0933

Sequence	recombinant barcode read abundance (log10)
CCGCGTGCTTGGGTTCTAACCTGTTGCCT (site CGGCGTGCTAG)	0.523
CCGCGTGCTTGGGTTCTAACCTGTTGCCT (site CTGCGTGCTAG)	0.0444
CCGCTACCTTGGGTTCTAACCTGTTGCGG (site CCGCTACCTCC)	0.474
CCGCTACCTTGGGTTCTAACCTGTTGCGG (site TCGCTAGCTCC)	0.0965
CCGTATGCTTGGGTTCTAACCTGTTGCCT (site CCGAATGCTAG)	0.234
CCGTATGCTTGGGTTCTAACCTGTTGCCT (site CCGCATGCTAG)	0.104
CCGTATGCTTGGGTTCTAACCTGTTGCCT (site CCGGATGCTAG)	0.0205
CCGTATGCTTGGGTTCTAACCTGTTGCCT (site CCGTATGCTAG)	0.168
CCGTCACCTTGGGTTCTAACCTGTTGCCT (site ACGTCACCTAG)	0.264
CCGTCACCTTGGGTTCTAACCTGTTGCCT (site CCGTCACCTAG)	1.29
CCGTCACCTTGGGTTCTAACCTGTTGCCT (site GCGTCACCTAG)	0.0965
CCGTCACCTTGGGTTCTAACCTGTTGCCT (site TCGTCACCTAG)	0.0881
CCGTCCTCTTGGGTTCTAACCTGTTGCTG (site CAGTCCTCTCA)	0.0234
CCGTCCTCTTGGGTTCTAACCTGTTGCTG (site CCGTCCTCTCA)	1.01
CCGTCGACTTGGGTTCTAACCTGTTGCCT (site ACGTCCACTAG)	0.0141
CCGTCGACTTGGGTTCTAACCTGTTGCCT (site CCGTCGACTAG)	0.197
CCGTCTACTTGGGTTCTAACCTGTTGCTG (site CCGTCTACTAA)	0.019
CCGTCTACTTGGGTTCTAACCTGTTGCTG (site CCGTCTACTCA)	0.38
CCGTCTACTTGGGTTCTAACCTGTTGCTG (site CCGTCTACTGA)	0.0602
CCGTCTACTTGGGTTCTAACCTGTTGCTG (site CCGTCTACTTA)	0.111
CCGTGGACTTGGGTTCTAACCTGTTGCCT (site CCGTGGACTAG)	1.75
CCGTGGACTTGGGTTCTAACCTGTTGCCT (site CCGTGGCCTAA)	0.254
CCTAAGACTTGGGTTCTAACCTGTTGCCG (site CCTAAGACTAG)	0.343
CCTAAGACTTGGGTTCTAACCTGTTGCCG (site CCTAAGACTCG)	0.263
CCTAAGACTTGGGTTCTAACCTGTTGCCG (site CCTAAGACTGG)	0.148
CCTAAGACTTGGGTTCTAACCTGTTGCCG (site CCTAAGACTTG)	0.0897

Sequence	recombinant barcode read abundance (log10)
CCTAATGCTTGGGTTCTAACCTGTTGCCT (site CCAAAGGCTAG)	0.0782
CCTAATGCTTGGGTTCTAACCTGTTGCCT (site CCTAATGCTAG)	0.0345
CCTACCGCTTGGGTTCTAACCTGTTGCTT (site CCTACCGCTAA)	0.424
CCTACCGCTTGGGTTCTAACCTGTTGCTT (site CGTACCGCTAG)	0.0456
CCTCACTCTTGGGTTCTAACCTGTTGCGG (site CCTCACTCTCC)	1.66
CCTCACTCTTGGGTTCTAACCTGTTGCGG (site CCTCAGTCTTC)	0
CCTCGCACTTGGGTTCTAACCTGTTGCCT (site CATCGCACTAG)	0.0533
CCTCGCACTTGGGTTCTAACCTGTTGCCT (site CCTCGCACTAG)	0.458
CCTCGCACTTGGGTTCTAACCTGTTGCCT (site CGTCGCACTAG)	0.133
CCTCGCACTTGGGTTCTAACCTGTTGCCT (site CTTCGCACTAG)	0.0293
CCTCGGGCTTGGGTTCTAACCTGTTGCAG (site CATCGGGCTCT)	0.0896
CCTCGGGCTTGGGTTCTAACCTGTTGCAG (site CCTCGGGCTCT)	1.23
CCTCGGGCTTGGGTTCTAACCTGTTGCAG (site CGTCGGGCTCT)	0.011
CCTCGGGCTTGGGTTCTAACCTGTTGCAG (site CTTCGGGCTCT)	0.101
CCTGACTCTTGGGTTCTAACCTGTTGCAC (site CCTGACTCTGT)	2.05
CCTGACTCTTGGGTTCTAACCTGTTGCAC (site GAACTGCCTAA)	0.0359
CCTGACTCTTGGGTTCTAACCTGTTGCAT (site CCTGACTCTAT)	2.19
CCTGACTCTTGGGTTCTAACCTGTTGCAT (site TAGTGGCCTTA)	0.221
CCTGAGACTTGGGTTCTAACCTGTTGCAG (site CCTGAGACTCT)	1.37
CCTGAGACTTGGGTTCTAACCTGTTGCAG (site CCTGGCACTCT)	0.297
CCTGCGACTTGGGTTCTAACCTGTTGCAC (site AAGCACCCTCA)	0.185
CCTGCGACTTGGGTTCTAACCTGTTGCAC (site CCTGCGACTGT)	0.219
CCTGCGGCTTGGGTTCTAACCTGTTGCCT (site CCTGCGACTAG)	0.0127
CCTGCGGCTTGGGTTCTAACCTGTTGCCT (site CCTGCGGCTAG)	0.15
CCTGGAACTTGGGTTCTAACCTGTTGCTT (site CCTGGAACTAA)	0.418
